Data taken from paper PMC6271425, “Synthesis and Sar Study of Diarylpentanoid Analogues as New Anti-Inflammatory Agents” (Molecules, 2014).
Read-outs that look alike come from different tables or passages of the source.

What was measured:
[1] = test system: NO production in IFN-γ/LPS-stimulated RAW 264.7 macrophages; assay: NO suppression (Griess nitrite determination) in IFN-γ/LPS-stimulated RAW 264.7 macrophages; assay type: cell-based, murine; conditions: for NO Inhibition at 50 µM (%) ± S.E.M: 50 µM test concentration; for inhibition at 50 µM: RAW264.7, 50 µM test concentration, read-out: NO Inhibition at 50 µM (%) ± S.E.M
Procedure: The synthesized compounds were screened for NO suppression activity in IFN-γ/LPS-stimulated RAW 264.7 macrophages at a 50 µM test concentration. […] The IC50 values of the fifty-seven bioactive compounds were determined and compared to that of the positive control, curcumin. An MTT assay was also carried out to confirm that NO inhibition was not due to cytotoxicity. […] The complete bioassay results of all the compounds are provided as Table S2 in Supplementary Data. RAW 264.7 murine macrophages cells obtained from American Type Culture Collection (ATCC, Rockville, MD, USA) were grown in Dulbecco’s Modified Eagle’s Medium (DMEM) containing 10% fetal bovine serum (FBS) and 1% penicillin/streptomycin in a 95% air and 5% CO2 atmosphere at 37 °C. RAW 264.7 cells at 90%–95% confluency were detached and seeded (50,000 cells/well) into a 96-well culture plate with 50 μL of DMEM and incubated for 24 h. The cells were then stimulated in […] of LPS (Escherichia coli, serotype 0111:B4) and 1 ng/ml of interferon-gamma (IFN-γ) in the presence or absence of test compounds for 17 h. Nitrite concentration was then determined by Griess assay by reacting 50 μL of cell culture supernatant with 50 μL of Griess reagent (1% sulfanilamide and 0.1% N-(1-naphthyl)ethylenediamine dihydrochloride in 2.5% phosphoric acid) at room temperature. The optical density was measured at 550 nm after 5 min of incubation at room temperature with a microplate reader.

[2] = Cell cytotoxicity determination (MTT assay); assay type: cell-based, murine; conditions: mouse, RAW 264.7 macrophage cells, RAW 264.7 cells, read-out: Cytotoxicity IC50 (µM) ± S.E.M
Procedure: The synthesized compounds were screened for NO suppression activity in IFN-γ/LPS-stimulated RAW 264.7 macrophages at a 50 µM test concentration. […] The IC50 values of the fifty-seven bioactive compounds were determined and compared to that of the positive control, curcumin. An MTT assay was also carried out to confirm that NO inhibition was not due to cytotoxicity. […] The complete bioassay results of all the compounds are provided as Table S2 in Supplementary Data.
RAW 264.7 murine macrophages cells obtained from American Type Culture Collection (ATCC, Rockville, MD, USA) were grown in Dulbecco’s Modified Eagle’s Medium (DMEM) containing 10% fetal bovine serum (FBS) and 1% penicillin/streptomycin in a 95% air and 5% CO2 atmosphere at 37 °C.
Supernatant in each well was removed followed by addition of 100 µL DMEM. Subsequently, 20 µL of 3-(4,5-dimethylthiazol-2-yl)-2,5-diphenyltetrazolium bromide (MTT, 5 mg/mL) was then added and the plate was incubated in a 95% air and 5% CO2 atmosphere at 37 °C for 4 h. The mixture of culture media and MTT in all wells were removed and the purplish formazan crystals formed were dissolved in dimethyl sulfoxide (DMSO) and further incubated for 15 min at room temperature. The color intensity was then measured at 570 nm at room temperature.

[3] = IFN-γ/LPS-stimulated RAW 264.7 cells
[4] = Mus musculus, IFN-γ/LPS-stimulated RAW 264.7 cells
[5] = Mus musculus, RAW264.7, IFN-γ/LPS-stimulated RAW 264.7 cells, read-out: NO Inhibition IC50 (µM) ± S.E.M
[6] = Mus musculus, RAW264.7, Table 6, NO suppression IC50 used for QSAR, unit inferred, read-out: IC50
[7] = Mus musculus, RAW264.7, −log IC50 of NO suppression, read-out: pIC50 (converted)
[8] = IFN-γ/LPS-stimulated RAW 264.7 cells, read-out: NO Inhibition IC50 (µM) ± S.E.M

| SMILES | NO Inhibition at 50 µM (%) ± S.E.M [1, 3] [%] | inhibition at 50 µM [1, 4] [%] | IC50 [1, 5] [µM] | IC50 [1, 6] [µM] | IC50 [1, 7] [µM] | IC50 [2] [µM] | IC50 [1, 8] [µM] |
| --- | --- | --- | --- | --- | --- | --- | --- |
| O=C(/C=C(O)/C=C/c1ccccc1)c1ccccc1O [Compound 1] | 94.7 ± 1.2 | 94.7 ± 1.2 | 22.6 ± 0.515 | 22.6 ± 0.5 | 22.4 | 56.2 ± 1.1 | – |
| O=C(/C=C(O)/C=C/c1ccccc1Cl)c1ccccc1O [Compound 2] | – | 91 ± 2.9 | 27.32 ± 0.234 | 27.3 ± 0.2 | 27.5 | > 100 | – |
| O=C(/C=C(O)/C=C/c1cccc(Cl)c1)c1ccccc1O [Compound 3] | 93.0 ± 3.4 | 93 ± 3.43 | 26.7 ± 0.732 | 26.7 ± 0.7 | 26.9 | > 100 | – |
| O=C(/C=C(O)/C=C/c1cccc(Br)c1)c1ccccc1O [Compound 4] | 88.4 ± 3.2 | 88.4 ± 3.21 | 29.4 ± 0.7 | 29.4 ± 0.7 | 29.5 | > 100 | – |
| COc1ccccc1/C=C/C(O)=C/C(=O)c1ccccc1O [Compound 5] | 91.8 ± 1.5 | 91.8 ± 1.49 | 25.7 ± 0.621 | 25.7 ± 0.6 | 25.7 | > 100 | – |
| COc1cccc(/C=C/C(O)=C/C(=O)c2ccccc2O)c1 [Compound 6] | 81.6 ± 4.0 | 81.6 ± 3.97 | 31.6 ± 0.632 | 31.6 ± 0.6 | 31.6 | > 100 | – |
| COc1ccc(/C=C/C(O)=C/C(=O)c2ccccc2O)cc1OC [Compound 8] | 94.7 ± 1.7 | 94.7 ± 1.7 | 24.6 ± 0.73 | 24.6 ± 0.7 | 24.5 | > 100 | – |
| COc1cc(/C=C/C(O)=C/C(=O)c2ccccc2O)cc(OC)c1OC [Compound 9] | 96.6 ± 1.4 | 96.6 ± 1.43 | 16.6 ± 1.14 | 16.6 ± 1.1 | 16.6 | > 100 | < 20 |
| O=C(/C=C(O)/C=C/c1ccco1)c1ccccc1O [Compound 12] | 82.0 ± 3.2 | 82 ± 3.18 | 49 ± 1.05 | 49 ± 1 | 49 | > 100 | – |
| COc1ccc(OC)c(/C=C/C(O)=C/C(=O)c2ccccc2O)c1 [Compound 14] | – | 92.9 ± 0.2 | 28.4 ± 0.435 | 28.4 ± 0.4 | 28.2 | > 100 | – |
| O=C(/C=C(O)/C=C/c1cccs1)c1ccccc1O [Compound 16] | 79.1 ± 4.6 | 79.1 ± 4.58 | 42.64 ± 0.128 | 42.6 ± 0.1 | 42.7 | > 100 | – |
| Cc1ccc(/C=C/C(O)=C/C(=O)c2ccccc2O)s1 [Compound 18] | 58.9 ± 5.8 | 58.9 ± 5.76 | 39.6 ± 4.13 | 39.6 ± 4.1 | 39.8 | > 100 | – |
| O=C(/C=C(O)/C=C/c1cccc2ccccc12)c1ccccc1O [Compound 19] | 85.8 ± 3.9 | 85.8 ± 3.93 | 23 ± 1.7 | 23 ± 1.7 | 22.9 | > 100 | – |
| O=C(/C=C(O)/C=C/c1ccccc1)c1cc(Cl)ccc1O [Compound 21] | 85.3 ± 6.8 | 85.3 ± 6.76 | 47.6 ± 1.14 | 47.6 ± 1.1 | 47.9 | > 100 | – |
| O=C(/C=C(O)/C=C/c1ccccc1Cl)c1cc(Cl)ccc1O [Compound 22] | 82.5 ± 4.3 | 82.5 ± 4.32 | 30 ± 2.1 | 30 ± 2.1 | 30.2 | > 100 | – |
| O=C(/C=C(O)/C=C/c1cccc(Cl)c1)c1cc(Cl)ccc1O [Compound 23] | 66.6 ± 4.1 | 66.6 ± 4.11 | 36.2 ± 0.922 | 36.2 ± 0.9 | 36.3 | 68.4 ± 2.2 | – |
| COc1ccccc1/C=C/C(O)=C/C(=O)c1cc(Cl)ccc1O [Compound 24] | 70.4 ± 1.3 | 70.4 ± 1.32 | 36 ± 0.515 | 36 ± 0.5 | 36.3 | > 100 | – |
| COc1cccc(/C=C/C(O)=C/C(=O)c2cc(Cl)ccc2O)c1 [Compound 25] | 76.3 ± 6.5 | 76.3 ± 6.48 | 17.4 ± 0.372 | 17.4 ± 0.4 | 17.4 | > 100 | < 20 |
| COc1cc(/C=C/C(O)=C/C(=O)c2cc(Cl)ccc2O)cc(OC)c1OC [Compound 28] | – | 89.5 ± 5.9 | 13.6 ± 0.532 | 13.6 ± 0.5 | 13.5 | > 100 | < 20 |
| O=C(/C=C(O)/C=C/c1cccs1)c1cc(Cl)ccc1O [Compound 35] | 68.8 ± 4.2 | 68.8 ± 4.21 | 32.17 ± 0.176 | 32.2 ± 0.2 | 32.4 | > 100 | – |
| O=C(/C=C(O)/C=C/c1ccc(Cl)s1)c1cc(Cl)ccc1O [Compound 36] | 71.6 ± 3.2 | 71.5 ± 3.2 | 25.3 ± 1.73 | 25.3 ± 1.7 | 25.1 | > 100 | – |
| Cc1ccc(/C=C/C(O)=C/C(=O)c2cc(Cl)ccc2O)s1 [Compound 37] | 56.0 ± 2.6 | 56 ± 2.62 | 62.4 ± 2.29 | 62.4 ± 2.3 | 63.1 | > 100 | – |
| Cc1ccc(/C=C/C(O)=C/C(=O)c2cc(Cl)ccc2O)o1 [Compound 38] | 73.8 ± 1.1 | 73.8 ± 1.14 | 25.5 ± 1.03 | 25.5 ± 1 | 25.7 | > 100 | – |
| O=C(/C=C(O)/C=C/c1ccccc1)c1cc(Br)ccc1O [Compound 41] | – | 79.9 ± 8.7 | 20.8 ± 0.54 | 20.8 ± 0.5 | 20.9 | > 100 | – |
| O=C(/C=C(O)/C=C/c1cccc(Cl)c1)c1cc(Br)ccc1O [Compound 43] | 81.2 ± 5.2 | 81.2 ± 5.16 | 19.8 ± 0.907 | 19.8 ± 0.9 | 20 | > 100 | < 20 |
| COc1ccc(C(=O)/C=C(O)/C=C/c2ccccc2)c(O)c1 [Compound 45] | – | 87.9 ± 5.1 | 29.5 ± 0.469 | 29.5 ± 0.5 | 29.5 | > 100 | – |
| COc1ccc(C(=O)/C=C(O)/C=C/c2ccccc2Cl)c(O)c1 [Compound 46] | 76.2 ± 4.6 | 76.2 ± 4.57 | 58.5 ± 2.45 | 58.5 ± 2.4 | 58.9 | > 100 | – |
| COc1cccc(/C=C/C(O)=C/C(=O)c2ccc(OC)cc2O)c1 [Compound 49] | 57.5 ± 6.5 | 57.5 ± 6.45 | 45.8 ± 0.804 | 45.8 ± 0.8 | 45.7 | > 100 | – |
| COc1ccc(C(=O)/C=C(O)/C=C/c2ccc(OC)c(OC)c2)c(O)c1 [Compound 51] | 58.9 ± 2.8 | 58.9 ± 2.76 | 21.7 ± 0.5 | 21.7 ± 0.5 | 21.9 | > 100 | – |
| O=C(/C=C(O)/C=C/c1cc(O)ccc1O)c1ccccc1O [Compound 83] | 94.3 ± 1.8 | 94.3 ± 1.83 | 16.7 ± 0.557 | 16.7 ± 0.6 | 16.6 | – | < 20 |
